Where “and” joins values, the source holds several entries; their conditions need not be identical. Identical values can stand only once. Like-named read-outs stand apart in the source and are kept apart here.
Columns and labels:
[1] = test system: HIV virus stock from patient PBMC; experiment: AZT sensitivity assay (inhibition of P24 production in donor PBMC); format: cell-based; conditions: Human immunodeficiency virus 1, PBMC
Method: Patient PBMC were cocultured with mitogen-stimulated PBMC from healthy HIV-seronegative donors. Supernatants from these cultures were collected and frozen when the HIV P24 antigen concentration exceeded 10,000 pg/ml. 30-100 TCID50 (50% tissue culture infectious dose) of virus stock was used to infect one million donor PBMC pretreated with different concentrations of AZT (0.0 μM, 0.005 μM, 0.05 μM, 0.5 μM, 5.0 μM). After 7 days, P24 antigen was measured in the cell free supernatant from the cultures with and without zidovudine. The concentration of AZT required to inhibit P24 production by 90% (IC90) as compared to the drug free cultures was determined by nonlinear regression analysis (Chou et al., 1984, Adv. Enzyme Regulation 22:27-55).
(§1) All comparisons between the patients with mutant and wild type strains were performed using the student's t-test. The calculations on the IC90s determined by the zidovudine sensitive assay were performed using the logl10 transformed IC90 (i.e., geometric means were used rather than arithmetic means).

[2] = test system: plasma HIV RNA; conditions: patients receiving AZT; ultracentrifugation, 40 cycles (Ottman et al.); cited from earlier work
[3] = test system: HIV with codon 215 mutation; conditions: mutation at codon 215; cited from earlier work
[4] = test system: CD4 cells; experiment: CD4 cell counts in long term AZT recipients related to codon 215 genotype; format: in vivo, human (HIV-infected patients); conditions: for CD4 decline after serum mutation / mean decrease of CD4 cells after serum mutation: 19 patients; for mean CD4 count at the start of therapy: 26 patients who developed codon 215 mutation in serum
Method: Cryopreserved PBMC and serum from 40 participants in AIDS Clinical Trial Group (ACTG) protocols 019 (30 patients) and 016 (10 patients) at Stanford University Medical Center AIDS Clinical Trial Unit were used in this study. Patients at enrollment in these studies were AZT naive, had >200 CD4 cells/μl and had few (016) or no symptoms (019) referable to HIV infection. They were subsequently treated with AZT for 2 to 4 years. The most common dosage was 500 mg per day.
CD4 cell counts were obtained approximately every three months on each patient. All counts were performed at Stanford's ACTG-qualified cytofluorometry lab. Samples were stained with monoclonal antibodies to CD3, CD4, and CD8. The absolute CD4 count was calculated by multiplying the percent CD4 by the total lymphocyte count.
as §1

[5] = 11 patients wild type in serum over 34 months

Compound: Cc1cn([C@H]2C[C@H](N=[N+]=[N-])[C@@H](CO)O2)c(=O)[nH]c1=O [AZT, zidovudine]
- IC90 ([1]; 168 h, isolates from AZT-naive patients, 7 days, read-out: IC90 (inhibition of P24 production by 90%), range): 2 to 38 nM
- IC90 ([1]; nine patients with a mutation at codon 215, read-out: IC90 range): 30 to 8000 nM
- IC90 ([1]; read-out: IC90 range, eight patients with wild type form at codon 215): 20 to 280 nM
- IC90 ([1]; read-out: geometric mean IC90, eight patients with wild type form at codon 215, post-treatment PBMC): 40 nM
- IC90 ([1]; read-out: geometric mean IC90, nine patients with a mutation at codon 215): 410 nM
- patients with detectable plasma HIV RNA signal [2]: 24 of 25
- decrease in zidovudine susceptibility [3]: 16 fold
- CD4 increase [4, 5]: 2%
- increase of CD4 cells [4, 5]: 7±92 CD4 cells/μl
- CD4 decline after serum mutation ([4]; at 12 months): 40%
- mean decrease of CD4 cells after serum mutation ([4]; at 12 months): 170±121 CD4 cells/μl
- CD4 decline after serum mutation ([4]; at six months): 25%
- mean decrease of CD4 cells after serum mutation ([4]; at six months): 100±116 CD4 cells/μl
- mean increase in absolute CD4 count, start of therapy to end of study ([4]; 21 patients wild type at codon 215): 11%
- Starting absolute CD4 ([4]; 21 patients wildtype at codon 215 in PBMC): 397 cells/μl and 397 ± 124 cells/μl
- mean CD4 count at first detection of codon 215 mutation in serum ([4]; 26 patients): 444±206 cells/μl and 444 cells/μl
- mean CD4 count at the start of therapy [4]: 398±139 cells/μl and 398 cells/μl
- mean CD4 count at the start of therapy ([4]; listed as zidovudine): 398±139 cells/μl
- starting CD4 count ([4]; patients who remained wild type in serum): 397±115 cells/μl
- CD4 % at time of PCR analysis ([4]; wildtype at codon 215 in PBMC): 25% and 25 ± 9%
- Starting CD4 % ([4]; wildtype at codon 215 in PBMC): 26 ± 8%
- Absolute CD4 at time of PCR analysis ([4]; wildtype at codon 215 in PBMC, 33 ± 8 months of AZT): 424 cell/μl and 424 ± 210 cell/μl
- Starting CD4 % ([4]; {}): 25 ± 6%
- decrease in absolute CD4 count, start of therapy to end of study ([4]; {}): 50%
